The target of assay [1] is JAK-2 (Homo sapiens, UniProt O60674). The experiment in a line: JAK-2 inhibition assay. The class given is biochemical.
Assay [2] addresses T1, JAK-3 (Homo sapiens, UniProt P52333).
T1 sequence (P52333 1-1124): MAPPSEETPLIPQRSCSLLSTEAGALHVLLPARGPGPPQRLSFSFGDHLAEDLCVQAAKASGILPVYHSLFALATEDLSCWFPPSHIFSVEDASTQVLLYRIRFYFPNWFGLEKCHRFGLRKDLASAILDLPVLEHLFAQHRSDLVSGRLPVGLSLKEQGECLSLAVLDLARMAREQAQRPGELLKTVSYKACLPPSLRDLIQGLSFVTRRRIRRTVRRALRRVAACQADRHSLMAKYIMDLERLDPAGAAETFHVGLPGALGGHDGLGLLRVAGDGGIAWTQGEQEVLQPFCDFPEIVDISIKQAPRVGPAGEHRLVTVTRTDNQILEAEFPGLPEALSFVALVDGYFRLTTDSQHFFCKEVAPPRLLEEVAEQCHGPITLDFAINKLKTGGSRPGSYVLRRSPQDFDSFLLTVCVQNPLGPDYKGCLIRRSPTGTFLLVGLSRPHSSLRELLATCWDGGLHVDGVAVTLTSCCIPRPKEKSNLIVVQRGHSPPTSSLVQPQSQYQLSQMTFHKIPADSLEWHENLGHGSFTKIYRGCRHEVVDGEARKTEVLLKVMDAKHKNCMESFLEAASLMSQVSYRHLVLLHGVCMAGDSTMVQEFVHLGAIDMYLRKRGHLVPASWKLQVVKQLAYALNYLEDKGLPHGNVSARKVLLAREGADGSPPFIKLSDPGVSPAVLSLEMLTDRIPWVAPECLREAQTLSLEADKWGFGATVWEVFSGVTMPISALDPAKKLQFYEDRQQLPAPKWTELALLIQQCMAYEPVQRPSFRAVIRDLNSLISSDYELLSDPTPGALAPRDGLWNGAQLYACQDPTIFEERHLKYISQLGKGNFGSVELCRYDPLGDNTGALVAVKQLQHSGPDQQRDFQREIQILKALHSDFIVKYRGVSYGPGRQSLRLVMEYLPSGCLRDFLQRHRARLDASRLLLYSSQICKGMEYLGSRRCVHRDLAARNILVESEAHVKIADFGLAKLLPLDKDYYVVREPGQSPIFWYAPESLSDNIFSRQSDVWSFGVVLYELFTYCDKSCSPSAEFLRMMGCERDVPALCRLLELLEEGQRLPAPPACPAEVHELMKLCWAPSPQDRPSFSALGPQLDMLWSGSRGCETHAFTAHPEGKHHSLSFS
The experiment in a line: JAK-3 inhibition assay. The class given is biochemical.

The record followed here is US8163732B2, “Tricyclic heteroaryl compounds useful as inhibitors of Janus kinase” (Vertex Pharmaceuticals Incorporated, priority 2005, dated 2012).

pKi: −log10 of the molar value.

One may read the pKi as −log10 of the Ki, conventionally taken in molar units. Higher therefore signals a small Ki.

Chain of JAK-2 (O60674 whole entry): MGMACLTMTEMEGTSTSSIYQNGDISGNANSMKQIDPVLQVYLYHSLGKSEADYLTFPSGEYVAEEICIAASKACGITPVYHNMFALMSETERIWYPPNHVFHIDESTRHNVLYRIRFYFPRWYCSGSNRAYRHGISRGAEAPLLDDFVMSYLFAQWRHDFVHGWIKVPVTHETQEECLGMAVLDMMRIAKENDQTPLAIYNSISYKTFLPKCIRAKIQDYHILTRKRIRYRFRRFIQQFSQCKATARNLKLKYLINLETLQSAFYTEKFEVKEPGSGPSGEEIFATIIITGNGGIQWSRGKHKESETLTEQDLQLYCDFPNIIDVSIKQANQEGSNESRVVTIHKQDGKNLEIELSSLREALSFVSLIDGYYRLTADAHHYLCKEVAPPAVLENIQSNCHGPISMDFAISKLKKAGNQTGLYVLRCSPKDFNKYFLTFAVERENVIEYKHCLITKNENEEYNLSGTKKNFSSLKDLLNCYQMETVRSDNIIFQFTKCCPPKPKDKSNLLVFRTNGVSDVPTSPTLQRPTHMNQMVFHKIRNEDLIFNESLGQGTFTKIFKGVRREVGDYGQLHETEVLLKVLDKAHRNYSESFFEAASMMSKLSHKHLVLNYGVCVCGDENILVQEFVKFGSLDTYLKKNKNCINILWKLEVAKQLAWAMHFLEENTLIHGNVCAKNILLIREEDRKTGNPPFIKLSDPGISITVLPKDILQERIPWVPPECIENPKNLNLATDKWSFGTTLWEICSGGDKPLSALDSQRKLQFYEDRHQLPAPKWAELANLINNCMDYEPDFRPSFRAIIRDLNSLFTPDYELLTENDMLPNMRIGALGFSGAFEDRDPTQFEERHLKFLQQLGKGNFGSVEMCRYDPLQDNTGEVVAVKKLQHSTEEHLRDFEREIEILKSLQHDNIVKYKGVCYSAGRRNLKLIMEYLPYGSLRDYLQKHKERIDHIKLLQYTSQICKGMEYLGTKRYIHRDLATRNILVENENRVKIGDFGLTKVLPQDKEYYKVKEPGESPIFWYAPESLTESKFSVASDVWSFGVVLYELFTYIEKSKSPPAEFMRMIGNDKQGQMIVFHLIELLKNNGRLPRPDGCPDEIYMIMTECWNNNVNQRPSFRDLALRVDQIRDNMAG

With `Oc1c(Br)cc(C2Nc3ccccc3-c3ccnc4[nH]cc2c34)cc1Br` (stereo not shown) [Compound 78], the negative logarithm of the Ki (pKi) in assay [1] and in assay [2] was 5.60 to 6.60 throughout.

For the molecule `C1=Nc2ccccc2-c2ccnc3[nH]cc1c23` [Compound 109], the negative logarithm of the Ki (pKi) in assay [1] and in assay [2] was 5.60 to 6.60 each time.

Consider `CCCOc1ccc(C2Nc3ccccc3-c3ccnc4[nH]cc2c34)cc1` (stereo not shown) [Compound 146], for which the results for the pKi in assay [1] and in assay [2] were above 6.60 and at least 6.60, respectively.

For the molecule `Cc1ccc(COc2ccccc2C2Nc3ccccc3-c3ccnc4[nH]cc2c34)cc1` (stereo not shown) [Compound 132], the pKi in assay [1] and in assay [2] was below 5.60 each time.

Consider `Fc1cccc(F)c1C1Nc2ccccc2-c2ncnc3[nH]cc1c23` (stereo not shown) [Compound 49], for which the pKi in assay [1] was above 6.60; in assay [2], 5.60 to 6.60.

Consider `Fc1cccc(C2Nc3ccccc3-c3ccnc4[nH]cc2c34)c1` (stereo not shown) [Compound 11], for which the pKi in assay [1] is above 6.60; in assay [2], 5.60 to 6.60.

As to `Oc1ccc(C2Nc3ccccc3-c3ncnc4[nH]cc2c34)cc1Cl` (stereo not shown) [Compound 81], the results for the pKi in assay [1] and in assay [2] were above 6.60 and at least 6.60, respectively.

On to `CCOc1cc(C2Nc3ccccc3-c3ccnc4[nH]cc2c34)ccc1O` (stereo not shown) [Compound 148], for which the pKi in assay [1] and in assay [2] was 5.60 to 6.60 in each case.

For the molecule `Fc1cccc(C2Nc3ccccc3-c3ncnc4[nH]cc2c34)c1` (stereo not shown) [Compound 50], the negative-log Ki (pKi) in assay [1] was 5.60 to 6.60; in assay [2], below 5.60.

In the case of `c1ccc2c(c1)NCc1c[nH]c3nccc-2c13` [Compound 13], the pKi in assay [1] and in assay [2] was 5.60 to 6.60 each time.

For the molecule `O=C(O)C1Nc2ccccc2-c2ccnc3[nH]cc1c23` (stereo not shown) [Compound 23], the negative logarithm of the Ki (pKi) in assay [1] and in assay [2] was 5.60 to 6.60 each time.
